Data: patent US12139458B2, “(2,5-dioxopyrrolidin-1-yl)(phenyl)-acetamide derivatives and their use in the treatment of neurological diseases” (UNIWERSYTET JAGIELLONSKI, priority 2019, dated 2024)

What was measured:
HepG2 cells = test: In vitro hepatotoxicity, MTS cell viability assay; format: cell-based; conditions: 100 μM, 72 h incubation, p<0.05
Description: In vitro hepatotoxicity assessment. The studies were conducted using the hepatoma HepG2 liver cancer cell line, which is used to assess the hepatotoxicity of the substance in vitro. A classic MTS colorimetric assay from Promega (Madison, WI, USA) was used to investigate the effect of 6 on HepG2 cell viability and proliferation. The compound was tested at four concentrations in the range (0.1-100 μM). Doxorubicin at a concentration of 1 μM was used as a reference cytostatic. In addition, the reference mitochondrial toxin carbonyl cyanide m-chlorophenylhydrazone (CCCP) at a concentration of 10 μM was also used (FIG. 10). […] In addition, cell viability was reduced to just 84% of the control, indicating a trace toxic effect of this compound on HepG2 cell lines. Due to the particular exposure of liver cells to the potential toxic effects of xenobiotics, an additional test was carried out with the HepG2 line in the form of luminescent measurement of ATP levels in cells, after a short 3-hour exposure to compound 6, in concentrations in the range of 1-100 μM. […]
In vitro hepatotoxicity assessment—methodology. […] Plates were again incubated for 2-3 hours, followed by absorbance measurement at 490 nm with an EnSpire PerkinElmer (Waltham, MA, USA) reader. Statistical significance was calculated by one-way ANOVA variance analysis and the Bonferroni method. […]

[1] = tested on: male Swiss albino mice (CD-1); test: Psychomotor seizure test 6 Hz (32 mA); format: in vivo
In short: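 Compounds given i.p. in 1% aqueous Tween 30 min before a 3 s ocular stimulus (32 mA and/or 44 mA, 6 pulses/s) after lidocaine; mice normal within 10 s counted protected. ED50 from 3-4 groups of 6 mice; screening on groups of 4.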

[2] = tested on: male Swiss albino mice (CD-1); test: Psychomotor seizure test 6 Hz (44 mA); format: in vivo
In short: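 Male CD-1 mice (groups of 4) given compounds i.p. in 1% Tween 30 min before a 3 s, 6 Hz corneal stimulus at 44 mA after lidocaine. Psychomotor seizure signs (immobility, forelimb clonus, vibrissae twitching, Straub tail) scored over 10 s; ANOVA with Dunnett's test, p<0.05.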

[3] = screening, 100 mg/kg, time point 0.5 h

O=C(C(c1ccccc1)N1C(=O)CCC1=O)N1CCN(c2cccc(C(F)(F)F)c2)CC1 (racemic) [Compound 6, 1-(2-Oxo-1-phenyl-2-(4-(3-(trifluoromethyl)phenyl)piperazin-1-yl)ethyl)pyrrolidine-2,5-dione]
HepG2 cell viability, % of the control (HepG2 cells): 84%
ED50 ([1]; Mus musculus, ip, 0.5 h, mice): 22.4 mg/kg
responders at 100 mg/kg ([1]; Mus musculus, ip, screening, 100 mg/kg i.p., 0.5 h, mice, read-out: 6 Hz (32 mA): number of mice protected/number of mice tested (converted)): 100%
mice protected in the 6 Hz (32 mA) test [1, 3]: 100%
ED50 ([2]; Mus musculus, ip, 0.5 h, mice): 73.2 mg/kg
6 Hz (44 mA): number of mice protected/number of mice tested ([2]; screening, 100 mg/kg i.p., 0.5 h, mice): 4/4
mice protected in the 6 Hz (44 mA) test [2, 3]: 100%
